Experimental data taken from ChEMBL document CHEMBL3507680, “University of Dundee, Gates Library screen for HepG2 cell viability”.

Assay: Human HepG2 cell viability assay in 384 well format
Format: toxicity, cell-based
Set-up: dose 125 nL, time 70.5 hour; cytotoxicity at 70.5 h: concentration not given beside the values
Conditions: HepG2 cells, read-out: Inhibition

Cc1nc(N2CCCC2)nc2c1CCN(C(=O)C1CCCC1)CC2
cytotoxicity at 70.5 h: -9.52%

Cc1cccc(C2N3CCC4(CC3)c3[nH]c5ccccc5c3CCN24)n1 (stereo unspecified)
cytotoxicity at 70.5 h: 5.13%

Fc1ccc2[nH]c3c(c2c1)CCN1C(c2ccncc2)N2CCC31CC2 (stereo unspecified)
cytotoxicity at 70.5 h: 22.4%

CC1CCc2nn(CCNC(=O)Cc3ccccc3F)c(=O)cc2C1 (stereo unspecified)
cytotoxicity at 70.5 h: 0.912%

CC1CCc2nn(CCNC(=O)Cc3ccc(F)cc3)c(=O)cc2C1 (stereo unspecified)
cytotoxicity at 70.5 h: -4.91%

Cn1ccnc1CN1CCCC(CCCc2ccccn2)(C(N)=O)C1 (stereo unspecified)
cytotoxicity at 70.5 h: -4.1%

Fc1ccccc1Oc1nccnc1C1CCN(C2CCOCC2)CC1
cytotoxicity at 70.5 h: 30.2%

CC(C)CC(=O)NC[C@H]1CC[C@H](C(c2ccccn2)N(C)C)CC1 (stereo partly specified)
cytotoxicity at 70.5 h: -3.76%

CN(C)C(c1ccccn1)[C@H]1CC[C@H](CNC(=O)C2CCCC2)CC1 (stereo partly specified)
cytotoxicity at 70.5 h: -2.3%

Cc1c(C(=O)N(C)CC(F)(F)F)nnn1-c1ccc(F)cc1
cytotoxicity at 70.5 h: 0.0353%

Cc1cnc2[nH]c(C(F)(F)F)c(CN3CCOCC3)c2c1
cytotoxicity at 70.5 h: 21.8%

CCn1cc(C(=O)NCCc2nc(-c3ccc(C)cc3)n[nH]2)c(C)n1
cytotoxicity at 70.5 h: -4.26%

CCn1ncc(C(=O)NCCc2nc(-c3ccc(C)cc3)n[nH]2)c1C
cytotoxicity at 70.5 h: -0.645%

Cc1nc(C)n(CCNC(=O)C2(C)CC(c3ccccc3)=NO2)n1 (stereo unspecified)
cytotoxicity at 70.5 h: 1.37%

Cn1ccc(C2CCCCCN2C(=O)c2cccnc2)n1 (stereo unspecified)
cytotoxicity at 70.5 h: -2.46%

Cc1ccc2nc(C)cc(NCCNS(=O)(=O)c3cccnc3)c2c1
cytotoxicity at 70.5 h: -2.02%

COc1cc2c(cc1CN1CCc3sccc3C1C)OCCO2 (stereo unspecified)
cytotoxicity at 70.5 h: 2.33%

CC(C)CC(=O)N1C[C@H]2CCCN(S(=O)(=O)c3ccc(Cl)s3)[C@H]2C1
cytotoxicity at 70.5 h: 14.6%

CNc1cccc(C2CN(C(=O)c3c[nH]cn3)CCO2)n1 (stereo unspecified)
cytotoxicity at 70.5 h: 5.85%

Cc1noc(C)c1CCC(=O)NCC1(O)CCCN(c2ccccn2)C1 (stereo unspecified)
cytotoxicity at 70.5 h: -5.72%

CC(=O)N1CCC(c2cncc(N3CCCC(O)C3)n2)CC1 (stereo unspecified)
cytotoxicity at 70.5 h: -4.12%

Cc1nccnc1C1CCN(C2CCCC2O)CC1 (stereo unspecified)
cytotoxicity at 70.5 h: -0.726%

c1cc2cc[nH]c2c(CC2CN(Cc3cncs3)C2)n1
cytotoxicity at 70.5 h: 7.7%

CN(C)S(=O)(=O)N1CC(c2nc(N)ncc2-c2ccc(F)cc2)C1
cytotoxicity at 70.5 h: -0.38%

CNc1cc(C2CN(C(=O)c3cnn(C)c3)CCO2)nc(C)n1 (stereo unspecified)
cytotoxicity at 70.5 h: 13.9%

CNc1ncc(C(=O)N2CCOC(C(=O)Nc3ccccc3)C2)cn1 (stereo unspecified)
cytotoxicity at 70.5 h: -2.73%

CN1CCCC1c1cncc(C(=O)NCc2ccccc2)n1 (stereo unspecified)
cytotoxicity at 70.5 h: -2.59%

O=C(Cc1cccnc1)N1CC(Cc2nccc3cc[nH]c23)C1
cytotoxicity at 70.5 h: 6.89%

Cc1c(CCC(=O)N2CCOC(c3cnccn3)C2)cnn1C (stereo unspecified)
cytotoxicity at 70.5 h: -2.28%

Cc1cc2nccc(C3CCN(C(=O)c4ccccc4F)CC3)n2n1
cytotoxicity at 70.5 h: -4.04%

Cc1cc(C)nc(N2CCCC2c2[nH]ncc2C(=O)N(C)C)n1 (stereo unspecified)
cytotoxicity at 70.5 h: -3.67%

COCCC(=O)N1C[C@@H](c2ccccc2F)[C@@]2(CCCC(=O)N2)C1
cytotoxicity at 70.5 h: -7.07%

Oc1cc(-c2ccsc2)nc(C2CCN(Cc3ccncc3)CC2)n1
cytotoxicity at 70.5 h: -3.71%

CN1CCCC1c1cncc(C(=O)NCC2CC2)n1 (stereo unspecified)
cytotoxicity at 70.5 h: -6.82%

CC(C)(C)OC(=O)N[C@@H]1C[C@@H](O)CN(C(=O)c2ccc(F)cc2)C[C@H]1O
cytotoxicity at 70.5 h: -2.5%

CNC(=O)C1(CCCc2ccccn2)CN(Cc2nccn2C)C1
cytotoxicity at 70.5 h: -9.75%

Cn1ccnc1CN1CCC(CCCc2ccccn2)(C(N)=O)CC1
cytotoxicity at 70.5 h: -13.4%

Cc1cccc(CN2CCCC[C@H]3CN(c4ncccn4)C[C@H]32)c1
cytotoxicity at 70.5 h: 5.5%

O=S(=O)(c1cn[nH]c1)N1C[C@@H](O)[C@H](N2CCc3ccccc3C2)C1
cytotoxicity at 70.5 h: -7.48%

Cc1ncsc1CN1CCOC(C)(C(=O)N(C)C)C1 (stereo unspecified)
cytotoxicity at 70.5 h: 20%

CNc1cc(C2CCCN2C(=O)CCc2cnn(C)c2C)ccn1 (stereo unspecified)
cytotoxicity at 70.5 h: -8.49%

CC(C)(C)CN1CCCC(c2nccnc2Nc2cnccn2)C1 (stereo unspecified)
cytotoxicity at 70.5 h: -12.3%

c1cnc(CC2CCN(c3cnccn3)CC2)cn1
cytotoxicity at 70.5 h: -7.05%

NC(=O)c1cnc(NC2CC2)nc1CCNC(=O)CC1CCCC1
cytotoxicity at 70.5 h: -14.3%

CN1CCC(c2cccc(C(=O)N(C)C)n2)CC1
cytotoxicity at 70.5 h: -7.65%

O=C(NC[C@H]1CC[C@H](c2ccnc3ncnn32)CC1)c1ccccn1
cytotoxicity at 70.5 h: -6.58%

N#Cc1cccc(CNc2ccc(F)cc2OCCO)c1
cytotoxicity at 70.5 h: -6.47%

Cn1cc(C(=O)NCCc2csc(-c3ccccc3)n2)ccc1=O
cytotoxicity at 70.5 h: -2.1%

Cc1cc(OCC(N)=O)ccc1NC(=O)C(C)Cc1ccccc1F (stereo unspecified)
cytotoxicity at 70.5 h: -2.1%

Cc1ccc(C(=O)NS(=O)(=O)Cc2ccccc2)cc1S(C)(=O)=O
cytotoxicity at 70.5 h: -2.97%

CS(=O)(=O)c1cc(NC(=O)COc2ccccc2F)cc(C(=O)O)c1
cytotoxicity at 70.5 h: -2.84%

Cc1ccnc(N2CCCC(c3nncn3C3CC3)C2)n1 (stereo unspecified)
cytotoxicity at 70.5 h: -2.88%

Cc1cccn2cc(CC(=O)N(CCN(C)C)CC3CCCO3)nc12 (stereo unspecified)
cytotoxicity at 70.5 h: 17.3%

CC(c1ccncc1)N(C)S(C)(=O)=O (stereo unspecified)
cytotoxicity at 70.5 h: -5.4%

CSCC(C)NS(=O)(=O)c1ccc(C)c(N(C)C)c1 (stereo unspecified)
cytotoxicity at 70.5 h: -4.35%

Cc1ccc(C(O)CN(C)Cc2cnn(C)c2)cc1C (stereo unspecified)
cytotoxicity at 70.5 h: -1.99%

CC(C)(C)c1ncc(C(=O)NCc2cccc(C(=O)N3CCCC3)c2)s1
cytotoxicity at 70.5 h: -1.76%

Cc1ccc(-c2nnc(CCC(=O)N3CCCC3c3ccc[nH]3)o2)cc1 (stereo unspecified)
cytotoxicity at 70.5 h: -2%

COc1ccc(CNC(=O)Nc2ccc(S(=O)(=O)C(F)F)cc2)cc1
cytotoxicity at 70.5 h: 8.9%

COc1ccc(Br)cc1NCC(=O)NC(C)(C#N)C1CC1 (stereo unspecified)
cytotoxicity at 70.5 h: 2.31%

Cc1cccc(C(=O)N2CCCC2)c1NCC(=O)NC(C)(C#N)C1CC1 (stereo unspecified)
cytotoxicity at 70.5 h: 28.8%

Cc1cccc(C(=O)N2CCCC2)c1NCC(=O)NC1(C#N)CCCC1
cytotoxicity at 70.5 h: -4.19%

O=C(COc1ccc2c(c1)CCCC2=O)NCc1ccco1
cytotoxicity at 70.5 h: -4.86%

CC(C)(Oc1ccc2c(c1)CCCC2=O)C(=O)NCc1ccco1
cytotoxicity at 70.5 h: -2.8%

CCCS(=O)(=O)C(C)C(=O)Nc1ccc2oc(C3CC3)nc2c1 (stereo unspecified)
cytotoxicity at 70.5 h: -2.1%

Cc1c(C(=O)NCC(F)(F)F)nnn1-c1ccccc1Cl
cytotoxicity at 70.5 h: -3.49%

COc1cccc(C(C)N2CCN(S(C)(=O)=O)CC2)c1 (stereo unspecified)
cytotoxicity at 70.5 h: 28.7%

CCn1ccnc1CN1CCCN(C(=O)c2ccc(C#N)cc2)CC1
cytotoxicity at 70.5 h: 0.738%

Cc1noc(OCc2csc(C)n2)n1
cytotoxicity at 70.5 h: -3.72%

CC(C)S(=O)(=O)C(C)C(=O)Nc1ccc2oc(C3CC3)nc2c1 (stereo unspecified)
cytotoxicity at 70.5 h: -2.28%

COc1ccncc1NC(=O)c1[nH]nc(C(C)C)c1Br
cytotoxicity at 70.5 h: -3.93%

O=C1NCCCCC1SCc1coc(-c2cccc(F)c2)n1 (stereo unspecified)
cytotoxicity at 70.5 h: -5.82%

Cc1nc(-c2ccc(CO)cc2)cc(C2CCNCC2)n1
cytotoxicity at 70.5 h: -2.27%

c1cc(CC2CCCNC2)nc(NCCc2cnccn2)c1 (stereo unspecified)
cytotoxicity at 70.5 h: -11.1%

CCc1nccn1-c1cncc(C2CCCN2)n1 (stereo unspecified)
cytotoxicity at 70.5 h: -8.79%

COc1cccc(Nc2nc(-c3ccncc3)nc3c2CNCC3)c1
cytotoxicity at 70.5 h: 24.2%

Fc1cnc(N2C[C@H]3CCC[C@@]3(COc3ccccn3)C2)nc1
cytotoxicity at 70.5 h: -7.17%

c1cncc(CO[C@H]2CO[C@@]3(CCN(Cc4ccoc4)C3)C2)c1
cytotoxicity at 70.5 h: -20.1%

CO[C@H]1CCN(Cc2cnn(C)c2)[C@@H]2CN(Cc3cccnc3)C[C@H]12
cytotoxicity at 70.5 h: -25.8%

OCCN(Cc1ccncc1)CC1(c2ccc(Cl)cc2)CC1
cytotoxicity at 70.5 h: -4.99%

Fc1ccc([C@@H]2COC[C@H]2NCc2cccc(F)c2)cc1
cytotoxicity at 70.5 h: -3.65%
